The test system of series [1] is hepatic inflammatory gene expression. On the procedure:
Ovariectornized C57BL/6 mice (16-20g) (Taconic) were separated into groups of 8. After 5-7 days of recuperation, the mice were fed a casein based diet (#8117, Test Diet, Richmond, IN) for five days. […] At the end of the experimental period, the liver was collected for RNA analysis.
Liver total RNA was prepared using Trizol reagent (BRL) and quantitated by real time RT-PCR using an ABI PRISM 7700 Detection System according to the manufacturer's protocol (Applied Biosystem). The data was analyzed using the Sequence Dector v1.7 software (Applied Biosystems) and normalized to GAPDH using Applied Biosystems primer set.
Feeding C57BL/6 mice a high fat diet containing cholate has been shown previously to induce inflammatory gene expression in the mouse liver after 3-5 weeks (Liao et al '93 JCI 91:2572, Evans et al. '01 Circ Res 89:823 & Miyake et al '00 JBC 275:21805).
To determine whether signaling via FXR was necessary to result in inflammatory gene expression, 1% UDCA was supplemented into the chow diet.
In particular, referring to FIG. 21a-d, C57BL/6 mice were fed either a chow, atherogenic or high fat diet (atherogenic diet without sodium cholate) as indicated. After 5 weeks, hepatic mRNA levels of the indicated genes were determined by real time PCR. […] After 5 days, hepatic mRNA levels of the indicated genes were determined by real time PCR. Data are reported as mean±SEM for each group. Referring to FIG. 23a-b: C57BL/6 mice were fed a chow diet supplemented with 1% ursodeoxycholic acid (UDCA). After 5 days, hepatic mRNA levels of the indicated genes were determined by real time PCR. […] Data are reported as mean±SEM for each group.

The next series concerns SHP. Nature of the series: Regulation of SHP expression in mouse liver, six weeks treatment, real time PCR. Type of series: in vivo. On the procedure: Several experiments were conducted to investigate the regulation of SHP expression, as follows. Referring to FIG. 9, ERα regulation of SHP expression in mouse liver was studied. […] Liver expression of SHP was monitored by real time PCR, with normalization for GAPDH expression. […] ICI182780 inhibited this induction.
(In qPCR the cycle at which signal appears reflects the starting amount.)

Another series deals with human SHP promoter. The series is described as follows: hSHP promoter luciferase reporter in HepG2 or 293 cells cotransfected with human ERα. It is filed as cell-based. Particulars: 293 cells with human ERα; for SHP promoter activity, compound alone: 10 nM E2 or 1 uM compound, 24 hours. On the procedure: Referring to FIGS. 11a and 11b, ERα regulation of hSHP promoter activity in human cells was examined. Human HepG2 or 293 cells were cotransfected with a control SV40 driven β-galactosidase plasmid, a luceriferase plasmid driven by 1.4 kb of the human SHP promoter, and an expression plasmid encoding either no protein or human ERα. […] Cell extracts were then analyzed for luciferase activity normalized for β-galactosidase activity.
Referring to FIGS. 12a, 12b, and 12c, ERα regulation of hSHP promoter activity in 293 cells was examined. Referring to FIGS. 12a and 12b, 293 cells were cotransfected with a control SV4O driven […] plasmid, a luceriferase plasmid driven by either 1.4 kb of the human SHP promoter or a synthetic 2×ERE/TK promoter, and an expression plasmid for human ERα. […] Cell extracts were then analyzed for luciferase activity with normalization for β-galaetosidase activity.
(In general: A reporter such as luciferase makes a cellular process visible.)

Series [2] relates to Fnk, JAB, LIX, bcl-3 and SHP. Nature of the series: Liver expression of Fnk, JAB, LIX, bcl-3 and SHP by realtime PCR after estrogen receptor ligand pretreatment and IL-1β. Conditions: mice; 100 ug/kg/day EE, 1 or 10 mg/kg/day E2, 30 mg/kg/day genistein, 5 mg/kg/day raloxifene, 10 mg/kg/day ICI182780; plus IL-1β. On the procedure: Referring to FIG. 3a, to distinguish these two mechanisms, the IL-1β fold induction of Fnk, JAB, LIX, and bcl-3 and the IL-1β fold repression of SHP was quantified in animals pretreated with vehicle (black bars) or 100 ug/kg/day EE (grey bars). Liver RNA levels of each gene (mean +/−SEM) were determined by realtime PCR of RNA from each individual animal.
Referring to FIGS. 4a, 4b, 4c, 4d and 4e, experiments were conducted to determine whether EE blocks IL-1β induction of gene expression by an estrogen receptor (ER) dependent mechanism. Estrogens can regulate gene expression by many mechanisms including ER independent pathways such as antioxidant mechanisms. […] Liver expression levels of Fnk, JAB, LIX, bcl-3 and SHP (mean +/−SEM) were determined by realtime PCR.
Referring to FIGS. 5a, 5b, 5c, 5d, and 5e, experiments were conducted to determine whether ERα is required for EE regulation of gene expression in the liver. To determine whether ERα or ERβ mediated the EE effects on IL-1β gene expression in the liver, C57BL/6 wild type mice, C57BL/6 ERαKO mice, or 129 ERβKO mice were pretreated with vehicle (black bars) or […] EE (gray bars) for 5 days followed by a 1 hour treatment with IL-1β. Liver expression levels of Fnk, JAB, LIX, bcl-3, and SHP (mean +/−SEM) were quantified by realtime PCR, with expression in animals receiving vehicle+PBS defined as 1.0.

The test system of the next series is HepG2 cells. Nature of the series: Gene expression in HepG2 cells treated 24 hr with CDCA or GW 4064. Particulars: HepG2, 24 hr. Type of series: cell-based, human. The protocol: HepG2 cells were maintained in growth media at 37° C. in a 5% CO2 incubator. The cells were seeded in deficient growth media (phenol red free DMEM (Gibco BRL) supplemented with heat-inactivated 10% FBS, 1% Glutamax, 1% MEM non-essential amino acids, 100 U/ml penicillin and 100 μg/ml streptomycin) at 4-5×10^5 cells per well in a 6 well dish (Falcon). The cells were then placed into serum deficient media for 24 hr before addition of the compounds for an additional 24 hrs. The cells were then harvested for RNA analysis.
To further investigate the possibility that bile acid signaling through FXR can promote inflammatory gene expression, experiments were conducted in the hepatocyte cell line, HepG2. […] HepG2 cells express a number of inflammatory genes including ICAM-1 and M-CSF constitutively (Stonans et al '99 Cytokine 11:151). […] As positive controls, the induction of SHP mRNA and the repression of cyp7a were confirmed.
Referring to FIG. 24a-b, HepG2 cells were treated for 24 hr with increasing concentrations of chenodeoxycholic acid (CDCA). […] Data are reported as mean±SEM for each group. C57BL/6 mice. […] Data are reported as mean±SEM for each group.

The mark [3] stands for this setting: C57BL/6 mice, chow with CA 0.01-1.0%, 5 days.
[4] abbreviates: CDCA 1-100 uM or GW 4064 1-1000 nM.

Take `C[C@H](CCC(=O)O)[C@H]1CC[C@H]2[C@@H]3[C@H](O)C[C@@H]4C[C@H](O)CC[C@]4(C)[C@H]3C[C@H](O)[C@]12C` [CA, cholic acid]: in series [1] (setting [3]), the “hepatic ICAM-1 mRNA” value is on record as “dose dependent induction”, the “induction of hepatic RANTES mRNA” value amounted to 1.75 fold, the “induction of hepatic TNFα mRNA” value came to 4 fold and the “induction of hepatic VCAM-1 mRNA” value is listed as 3 fold. For the same molecule, the “CA supplementation sufficient to induce inflammatory gene expression” value in series [1] (chow fed mice, acute exposure) is on record as 0.3%. Further, the “induction of hepatic SHP expression” value in series [1] (mice fed 1% CA or UDCA, 5 days) is recorded as “only observed with CA”.

Regarding `C[C@H](CCC(=O)O)[C@H]1CC[C@H]2[C@@H]3[C@@H](O)C[C@@H]4C[C@H](O)CC[C@]4(C)[C@H]3CC[C@]12C` [UDCA, ursodeoxycholic acid], in series [1] (mouse, in vivo), the cyp3a expression entry is given as “induced” and the cyp7a expression entry is given as “repress”.

Consider `C[C@]12CC[C@@H]3c4ccc(O)cc4C[C@@H](CCCCCCCCC[S+]([O-])CCCC(F)(F)C(F)(F)F)[C@H]3[C@@H]1CC[C@@H]2O` (stereo partly drawn) [ICI-182780], for which the “effect on E2 induction of liver SHP mRNA” value in the series on SHP (WT mice, 10 ug/kg/day E2+5 mg/kg/day ICI182780, six weeks) is “inhibited”. For the same molecule, the “SHP promoter activity, compound alone” value with human SHP promoter is “inactive alone”. Besides, the “effect on E2 activity at SHP promoter” value in the series with human SHP promoter (1 uM compound plus 10 nM E2) is listed as “antagonized”. In addition, in series [2], the “effect on regulation of liver Fnk, JAB, LIX, bcl-3 and SHP expression vs IL-1β alone” value was “no effect”.

Turning to `CC/C(=C(\c1ccccc1)c1ccc(OCCN(C)C)cc1)c1ccccc1` [tamoxifen], in the series on SHP (ovariectomized wildtype mice, sc six weeks, 10 ug/kg/day E2, 5 mg/kg/day tamoxifen, 5 mg/kg/day PPT), the “liver SHP mRNA levels, WT animals” value was “induced”. In addition, the “SHP promoter activity, compound alone” value with human SHP promoter is listed as “stimulated”.

`C[C@H](CCC(=O)O)[C@H]1CC[C@H]2[C@@H]3[C@H](O)C[C@@H]4C[C@H](O)CC[C@]4(C)[C@H]3CC[C@]12C` [CDCA, chenodeoxycholic acid]: in the series with HepG2 cells (setting [4]), the ICAM-1 expression result is “induced in a dose dependent manner” and the M-CSF expression entry is “induced in a dose dependent manner”. In addition, in the series on HepG2 cells (positive control), the “SHP mRNA” value is on record as “induction” and the cyp7a expression entry was “repression”.

The values above are taken from patent publication US20050221328A1, “Inhibitors of inflammatory gene activity and cholesterol biosynthesis” (Wyeth, priority 2002, published 2005).
